Source: ChEMBL document CHEMBL4602653, “Neuraminidase-triggered activation of prodrug-type substrate of 4-nitroaniline” (Bioorg Med Chem Lett, 2020)

Key:
Type in all cases: ADME
Details in all cases: isolated protein, 6000 µM
[1] = Drug metabolism assessed as Clostridium perfringens neuraminidase-mediated drug decomposition by measuring ratio of alpha-H3-(equitorial)-N-acetyl-neuraminic acid to beta-H3-(equitorial)-N-acetyl-neuraminic acid at 6 mM measured over 10 hrs by 1H-NMR analysis
[2] = Drug metabolism assessed as Clostridium perfringens neuraminidase-mediated drug decomposition resulting in formation of alpha-H3-(axial)-N-acetyl-neuraminic acid at 1.83 ppm at 6 mM measured over 10 hrs by 1H-NMR analysis
[3] = Drug metabolism assessed as Clostridium perfringens neuraminidase-mediated drug decomposition resulting in formation of alpha-H3-(axial)-N-acetyl-neuraminic acid at 1.62 ppm at 6 mM measured over 10 hrs by 1H-NMR analysis
[4] = Drug metabolism assessed as Clostridium perfringens neuraminidase-mediated formation of free N-acetyl-neuraminic acid at 6 mM measured after 75 hrs by 1H-NMR analysis
[5] = Drug metabolism assessed as Clostridium perfringens neuraminidase-mediated drug decomposition by measuring ratio of alpha-H3-(axial)-N-acetyl-neuraminic acid to beta-H3-(axial)-N-acetyl-neuraminic acid at 6 mM measured over 10 hrs by 1H-NMR analysis
[6] = Drug metabolism assessed as Clostridium perfringens neuraminidase-mediated drug decomposition resulting in formation of alpha-H3-(equitorial)-N-acetyl-neuraminic acid at 2.74 ppm at 6 mM measured over 10 hrs by 1H-NMR analysis
[7] = Drug metabolism assessed as Clostridium perfringens neuraminidase-mediated formation of para-quinone methide by measuring 4-hydroxy benzyl alcohol formation at 6.90 to 7.29 ppm at 6 mM measured after 10 hrs by 1H-NMR analysis
[8] = Drug metabolism assessed as Clostridium perfringens neuraminidase-mediated drug decomposition resulting in formation of beta-H3-(equitorial)-N-acetyl-neuraminic acid at 2.21 ppm at 6 mM measured over 10 hrs by 1H-NMR analysis

In the case of `CC(=O)N[C@H]1[C@H]([C@H](O)[C@H](O)CO)OC(Oc2ccc(COC(=O)Nc3ccc([N+](=O)[O-])cc3)cc2)(C(=O)O)C[C@@H]1O` (stereo partly drawn), the Ratio [1] is reported as 7.6, the Drug metabolism [2] is reported as “Metabolite_Detected” and the Drug metabolism [3] is reported as “Metabolite_Detected”. The Drug metabolism [4] was “Metabolite_Detected”, the Ratio [5] was 92.4 and the Drug metabolism [6] was “Metabolite_Detected”. For the same compound, the Drug metabolism [7] was “Metabolite_Detected” and the Drug metabolism [8] was “Metabolite_Detected”.
